Data reported in patent US20050042308A1, “Pharmaceutical composition having cholagogic and litholytic effect and its preparation method” (priority 2001, published 2005).
Marks after values point to notes of the source that are not given here.

How the values were obtained:
[1] = tested on: ankle swollen of rat caused by carragheen; assay: Ankle swollen of the rat caused by carragheen; format: in vivo; settings: Eulektrol 0.15 ml/kg, Prednisone acetate 30(mg)
granuloma of rat = assay: Granuloma of rat caused by agar; format: in vivo; settings: Prednisone 30 (mg)
Text: Thereinto, the inhibition effect of moderates high dose group is compared with control group, P<0.05, P<0.01 respectively, showing significant inhibition effect.

cholelithiasis patients = settings: cited from earlier work
bilirubin in bile = assay: The measure of bilirubin of bile; format: in vivo; settings: cholanic acid 0.1(g), Eulektrol 0.15(g), Dehydrogenized cholanic acid 0.1(g)
[2] = tested on: bile secretion of the rat; assay: Cholagogue experiment in rat (bile efflux coefficient); format: in vivo; settings: Eulektrol 0.150 ml/kg; for bile efflux coefficient before 1 hour: before drug administration, Cholanic acid 100 mg (pure substance), Dehydrogenized Cholanic acid 100 mg (pure substance) groups; for (%) increase of bile efflux coefficient compared with control group, after 1 hour / (%) increase of bile efflux coefficient compared with control group, after 2 hours / (%) increase of bile efflux coefficient compared with control group, after 3 hours / (%) increase of bile efflux coefficient compared with control group, after 4 hours / bile efflux coefficient after 1 hour / bile efflux coefficient after 2 hours / bile efflux coefficient after 3 hours / bile efflux coefficient after 4 hours: into duodenum, Cholanic acid 100 mg, Dehydrogenized Cholanic acid 100 mg (pure substance)
Experimental: After grouping, the experimental rats are fasting for 16 hours before experiment; anesthetize these rats through ip ethyl carbamate (also named Urethane). After anesthesia, enlace the four limbs; incise the abdomen to find the pylorus of the stomach. Along the pylorus, find common bile duct. Use little forceps to deliminate the surface envelope and reveal the common bile duct, ligate the lower extremity, carefully shear a little ventage, insert plastic duct with external diameter 1 mm into the common bile duct proximal to the liver to drain the bile. After bile drainage volume is stable, record the bile collection volume every 0.5 hour, for two times.

fever of the rat = assay: Fever of the rat caused by 2, 4-dinitrophenol; format: in vivo; settings: Aminopyrine 80(mg), Eulektrol 0.15 ml/kg
Experimental: Get […] healthy male rats with 1 80˜220 g body weight, randomly separate them into 6 groups according to the body weight with 8 rats in each group. The rats in the 1st group are forced to take 0.5% CMC 10 ml/kg. The rats in the 2nd group are forced to take aminopyrine […]. The rats in 3rd group are forced to take Eulektrol 0.15 ml /kg. The rats in the 4th, 5th, 6th are respectively forced to take LDRS 0.077 ml, 0.154 ml, […]. 15 minutes later after drug administration SC 25 mg/ml 2,4-dinitrophenol in the middle of shoulder and back, then measure the anal temperature in 0 hour before drug administration, 0.25 hours, 0.5 hours, 1 hours, 2 hours, 4 hours after drug administration.

[3] = tested on: auricular swollen of mouse caused by dimethylbenzene; assay: Auricular inflammation of mouse caused by dimethylbenzene; format: in vivo; settings: Eulektrol 0.15 ml/kg; Indothemacin 30 (mg)
[4] = tested on: gallbladder muscle stripe in vitro; assay: Gallbladder smooth muscle contraction caused by acetylcholine; parameters: species or system guinea pig
Experimental: Krebs liquid culture plate, anatomize longitudinally to get 2 pieces of muscle stripe of gallbladder with 10 mm length and […] width. Place the muscle stripe into 37° C. constant temperature Mcrruary bath with Kmbs solution (20 ml), the lower end is fixed on the hook at the bottom of the bath, the upper end is connected to the energy transducer, adjust the oxygen flow gas bubble to tiny and uniform flow, the energy transducer is connected to physiological recorder with prepositive amplifier. Every time after adding test solution observes for more than 3 minutes. When reaching the biggest effect, timely rinse the bath with flushing solution three times with 15 minutes break. After the contraction curve becomes balanced, to make another experiment. […] Krebs solution should be prepared with double-distilled water). After adding acetylcholine, record the contraction curve of gallbladder muscle. From the contraction curve, we can see the amplitude of contraction curve rise. After contraction curve reaches peak-balance, add different concentration LDRS solution. After adding drug solution, the amplitude of contraction curve of gallbladder muscle stripe descends. Record the altitude of amplitude of every phase. The statistic method is below: before drug administration, from the upper and lower limit point of the amplitude contraction curve of gallbladder muscle stripe to respectively line a straight line parallel to the transverse coordinate axis, measure the altitude between the two parallel line as the normal amplitude (The lower line before drug administration is used as basal line). After contraction curve is stable, adding different concentration Ach solution, we can see the amplitude of contraction curve of gallbladder muscle stripe rise, through the peak of amplitude to line a straight line parallel to basal line and measure the altitude between the two parallel line as amplitude of Ach. After curve is stable, add different concentration LDRS stock solution and through the lowest point of amplitude to line parallel to basal line, measure the altitude between the basal line and the lowest line.

[5] = series with 8 muscle stripes, Ach 10^−4 ml alone, or LDRS (printed 10^−2 ml) added after Ach
[6] = series with 13 muscle stripes, Ach 10^−4 ml alone, or LDRS 10^−2 ml added after Ach

Compound	D-bil in bile (bilirubin in bile; 1 h) [mmol/L]	F-bil in bile (bilirubin in bile; 1 h) [mmol/L]	T-BIL in bile (bilirubin in bile; 1 h) [mmol/L]	D-bil in bile (bilirubin in bile; 2 h) [mmol/L]	F-bil in bile (bilirubin in bile; 2 h) [mmol/L]	T-BIL in bile (bilirubin in bile; 2 h) [mmol/L]	D-bil in bile (bilirubin in bile; 3 h) [mmol/L]	F-bil in bile (bilirubin in bile; 3 h) [mmol/L]	T-BIL in bile (bilirubin in bile; 3 h) [mmol/L]	D-bil in bile (bilirubin in bile; 4 h) [mmol/L]	F-bil in bile (bilirubin in bile; 4 h) [mmol/L]	T-BIL in bile (bilirubin in bile; 4 h) [mmol/L]	bile efflux coefficient before 1 hour [2]	(%) increase of bile efflux coefficient compared with control group, after 1 hour [2] [%]	(%) increase of bile efflux coefficient compared with control group, after 2 hours [2] [%]	(%) increase of bile efflux coefficient compared with control group, after 3 hours [2] [%]	(%) increase of bile efflux coefficient compared with control group, after 4 hours [2] [%]	bile efflux coefficient after 1 hour [2]	bile efflux coefficient after 2 hours [2]	bile efflux coefficient after 3 hours [2]	other results
CC(=O)OCC(=O)[C@@]1(O)CC[C@H]2[C@@H]3CCC4=CC(=O)C=C[C@]4(C)[C@H]3C(=O)C[C@@]21C [Prednisone acetate]	–	–	–	–	–	–	–	–	–	–	–	–	–	–	–	–	–	–	–	–	size of ankle ([1]; 2 h after drug): 2.34 ± 0.17 cm; size of ankle ([1]; 4 h after drug): 2.10 ± 0.15 cm; size of ankle ([1]; 8 h after drug): 1.90 ± 0.19 cm; size of ankle ([1]; 16 h after drug): 2.10 ± 0.211 cm; size of ankle ([1]; 20 h after drug): 2.00 ± 0.009 cm; average granuloma coefficient (granuloma of rat): 0.20 ± 0.08; inhibition rate of granuloma coefficient (granuloma of rat): 69.2** %
C[C@H](CCC(=O)O)[C@H]1CC[C@H]2[C@@H]3CCC4CCCC[C@]4(C)[C@H]3CC[C@]12C (some centres unmarked) [Cholanic acid, cholanic acid]	67.3 ± 25.4	26.7 ± 20.1	94.1 ± 37.9	60.8 ± 31.9	16.9 ± 12.8	77.7 ± 38.9	55.3 ± 18.2	27.2 ± 13.9	82.5 ± 29.0	53.0 ± 31.6	28.3 ± 10.6	81.3 ± 29.8	0.116 ± 0.04 ml(bile)/100 g · bw	6.4	26.8	123.6	45.1	0.166 ± 0.04 ml(bile)/100 g · bw	0.189 ± 0.05 ml(bile)/100 g · bw	0.246 ± 0.04 ml(bile)/100 g · bw	efficacy of the therapeutics (reducing the gallstone size, dissolving the gallstone or decreasing the gallstone) (cholelithiasis patients; clinical case report): about 50%; patients with SGOT increase (cholelithiasis patients; treatment of the cholelithiasis): 20%; bile efflux coefficient after 4 hours [2]: 0.164 ± 0.04 ml(bile)/100 g · bw
Cc1c(N(C)C)c(=O)n(-c2ccccc2)n1C [Aminopyrine, aminopyrine]	–	–	–	–	–	–	–	–	–	–	–	–	–	–	–	–	–	–	–	–	the body temperature variation after drug administration (fever of the rat; 0.25 h): −0.21 ± 0.52 °C; the body temperature variation after drug administration (fever of the rat; 0.5 h): −0.05 ± 0.81 °C; the body temperature variation after drug administration (fever of the rat; 1 h): 0.03 ± 0.79 °C; the body temperature variation after drug administration (fever of the rat; 2 h): 0.49 ± 0.47 °C; the body temperature variation after drug administration (fever of the rat; 4 h): 0.30 ± 0.67 °C
C[C@H](CCC(=O)O)[C@H]1CC[C@H]2[C@@H]3C(=O)C[C@@H]4CC(=O)CC[C@]4(C)[C@H]3CC(=O)[C@]12C [Dehydrogenized Cholanic acid, dehydrogenized cholanic acid]	57.8 ± 12.8	15.4 ± 4.9	73.1 ± 14.1	43.4 ± 15.5	10.9 ± 11.2	54.3 ± 23.9	39.9 ± 10.2	8.16 ± 3.1	48.1 ± 14.8	45.7 ± 16.4	13.6 ± 5.69	59.3 ± 19.7	0.116 ± 0.04 ml(bile)/100 g · bw	5.8	57.0	102.7	85.8	0.165 ± 0.08 ml(bile)/100 g · bw	0.234 ± 0.07 ml(bile)/100 g · bw	0.223 ± 0.05 ml(bile)/100 g · bw	bile efflux coefficient after 4 hours [2]: 0.210 ± 0.07 ml(bile)/100 g · bw
COc1ccc2c(c1)c(CC(=O)O)c(C)n2C(=O)c1ccc(Cl)cc1 [Indothemacin, indomethacin]	–	–	–	–	–	–	–	–	–	–	–	–	–	–	–	–	–	–	–	–	inhibition rate of auricular swelling [3]: 74.0%; the auricular weight difference between left and right [3]: 3.98 ± 2.5 mg/100 g
CC(=O)OCC[N+](C)(C)C [Ach, acetylcholine]	–	–	–	–	–	–	–	–	–	–	–	–	–	–	–	–	–	–	–	–	gallbladder contraction amplitude [4, 5]: 32.73 ± 6.90 mm; variation rate of amplitude (normal value = 100.0) [4, 5]: 654.6%; gallbladder contraction amplitude [4, 6]: 35.2 ± 6.84 mm; variation rate of amplitude (normal value = 100.0) [4, 6]: 541.5%
